# Literature values in PubChem BioAssay AID1259409 (Chemical Carcinogenesis Research Information System (CCRIS), 2018).
# Values joined by “and” are separate entries in the source; they are usually repeats but may differ in a detail not shown here. Identical values can stand only once.
# Tested on: rodent chemically induced tumor inhibition, incidence and multiplicity
# Experiment: CCRIS tumor inhibitor studies
structure (smiles),measurement,setting,value
CN(C)CCOc1ccc(/C(=C(/CCCl)c2ccccc2)c2ccccc2)cc1,"tumour outcome (control, treated, inhibition, significance)","Carcinogen: N-METHYL-N-NITROSOUREA (684-93-5), Dose [Inhibitor]: 0, 0.2 MG/30 G BW ONCE EVERY 4 WK BEGINNING 1 WK POST CARCINOGEN DOSE (STUDY DURATION: 31 WK), Route [Inhibitor]: SUBCUTANEOUS, Species: MOUSE, Strain/Sex: ICR/FEMALE, Target Tissue: Type of Lesion: UTERUS: ENDOMETRIAL ADENOCARCINOMA, Dose [Carcinogen]: 1 MG/100 G BW IN 0.1 ML SALINE ONCE AT 10 WKS OF AGE, Promoter: 17 BETA-ESTRADIOL (50-28-2)","8/24 (33%), 1/19 (5%), 85%, p< 0.01"
same,"tumour outcome (control, treated, inhibition, significance)","Carcinogen: N-METHYL-N-NITROSOUREA, 684-93-5, Dose [Inhibitor]: 0, 100 MG/KG IN DIET FOR 28 D THEN REDUCED TO 50 MG/KG IN DIET FOR THE DURATION OF STUDY (STUDY DURATION: 187 D), Route [Inhibitor]: ORAL, Species: RAT, Strain/Sex: SPRAGUE-DAWLEY/FEMALE, Target Tissue: Type of Lesion: MAMMARY GLAND: TUMOR, Dose [Carcinogen]: 50 MG/KG BW ONCE, Promoter: NONE USED","100%, 46%, 54%, p<0.05"
CC1=C(O)C(=O)C(C)O1 (stereo not given),"tumour outcome (control, treated, inhibition, significance)","Carcinogen: BENZO[A]PYRENE, 50-32-8, Dose [Inhibitor]: 0, 25 PPM IN DIET FOR 17 WK BEGINNING 1 WK POST CARCINOGEN TREATMENT (STUDY DURATION: 21 WK), Route [Inhibitor]: ORAL, Species: MOUSE, Strain/Sex: ICR/FEMALE, Target Tissue: Type of Lesion: FORESTOMACH: TUMOR, Dose [Carcinogen]: 1.5 MG IN 0.2 ML CORN OIL 1/WK FOR 4 WK, Promoter: NONE USED","90%, 74%, 18%, not significant"
same,"tumour outcome (control, treated, inhibition, significance)","Carcinogen: BENZO[A]PYRENE, 50-32-8, Dose [Inhibitor]: 0, 50 PPM IN DIET FOR 17 WK BEGINNING 1 WK POST CARCINOGEN TREATMENT (STUDY DURATION: 21 WK), Route [Inhibitor]: ORAL, Species: MOUSE, Strain/Sex: ICR/FEMALE, Target Tissue: Type of Lesion: FORESTOMACH: TUMOR, Dose [Carcinogen]: 1.5 MG IN 0.2 ML CORN OIL 1/WK FOR 4 WK, Promoter: NONE USED","90%, 72%, 20%, p<0.1"
same,"tumour outcome (control, treated, inhibition, significance)","Carcinogen: BENZO[A]PYRENE, 50-32-8, Dose [Inhibitor]: 0, 75 PPM IN DIET FOR 17 WK BEGINNING 1 WK POST CARCINOGEN TREATMENT (STUDY DURATION: 21 WK), Route [Inhibitor]: ORAL, Species: MOUSE, Strain/Sex: ICR/FEMALE, Target Tissue: Type of Lesion: FORESTOMACH: TUMOR, Dose [Carcinogen]: 1.5 MG IN 0.2 ML CORN OIL 1/WK FOR 4 WK, Promoter: NONE USED","90%, 62%, 31%, p<0.05"
O=C(c1ccc(OCCN2CCCCC2)cc1)c1c(-c2ccc(O)cc2)sc2cc(O)ccc12,"tumour outcome (control, treated, inhibition, significance)","Carcinogen: 7,12-DIMETHYLBENZ[A]ANTHRACENE (DMBA) [57-97-6], Dose [Inhibitor]: 50 MG/KG/D FOR 37 WK (STUDY DURATION: 37 WK), Route [Inhibitor]: ORAL GAVAGE, Species: MOUSE, Strain/Sex: SENCAR/FEMALE, Target Tissue: Type of Lesion: MAMMARY: CARCINOMA, Dose [Carcinogen]: 20 UG/D FOR 6 WKS (STUDY DURATION: 37 WKS), Promoter: MEDROXYPROGESTERONE ACETATE (71-58-9)","10/21 (48%); 5/17 (29%), 40%, p=0.20"
same,"tumour outcome (control, treated, inhibition, significance)","Carcinogen: ESTRADIOL, 50-28-2, Dose [Inhibitor]: 0, 25 MG PELLET 2 PELLETS IMPLANTED EVERY 3 MO BEGINNING 15 D PRIOR TO CARCINOGEN DOSE (STUDY DURATION: 8 MO), Route [Inhibitor]: SUBCUTANEOUS IMPLANT, Species: HAMSTER, Strain/Sex: SYRIAN/MALE, Target Tissue: Type of Lesion: KIDNEY: TUMOR, Dose [Carcinogen]: 25 MG PELLET IMPLANTED EVERY 3 MO, Promoter: NONE USED","5/5 (100%), 3/4 (75%), 25%, not significant"
same,"tumour outcome (control, treated, inhibition, significance)","Carcinogen: N-METHYL-N-NITROSOUREA, 684-93-5, Dose [Inhibitor]: 0, 5 MG/KG BW/D 2/WK TO DORSAL AREA STARTING 10 D BEFORE CARCINOGEN TREATMENT FOR THE DURATION OF THE STUDY (STUDY DURAT, Route [Inhibitor]: SUBCUTANEOUSLY, Species: RAT, Strain/Sex: SPRAGUE-DAWLEY/FEMALE, Target Tissue: Type of Lesion: MAMMARY GLAND: TUMOR, Dose [Carcinogen]: 50 MG/KG BW 2/WK FOR 1 WK BW 43-54 POSTNATAL DAYS","80%, 26%, 67%, p<0.001"
same,"tumour outcome (control, treated, inhibition, significance)","Carcinogen: N-METHYL-N-NITROSOUREA, 684-93-5, Dose [Inhibitor]: 0, 20 MG/KG OF DIET FOR DURATION OF STUDY BEGINNING 1 WK POST CARCINOGEN DOSE (STUDY DURATION: 5 MO), Route [Inhibitor]: ORAL, Species: RAT, Strain/Sex: SPRAGUE-DAWLEY/FEMALE, Target Tissue: Type of Lesion: MAMMARY GLAND: TUMOR, Dose [Carcinogen]: 50 MG/KG BW ONCE, Promoter: NONE USED","23/24 (96%), 10/12 (83%), 14%, p=0.26 and 29/30 (97%), 14/30 (47%), 52%, p=0.0001"
same,"tumour outcome (control, treated, inhibition, significance)","Carcinogen: N-METHYL-N-NITROSOUREA, 684-93-5, Dose [Inhibitor]: 0, 60 MG/KG OF DIET FOR DURATION OF STUDY BEGINNING 1 WK POST CARCINOGEN DOSE (STUDY DURATION: 5 MO), Route [Inhibitor]: ORAL, Species: RAT, Strain/Sex: SPRAGUE-DAWLEY/FEMALE, Target Tissue: Type of Lesion: MAMMARY GLAND: TUMOR, Dose [Carcinogen]: 50 MG/KG BW ONCE, Promoter: NONE USED","23/24 (96%), 8/12 (67%), 30%, p=0.03 and 29/30 (97%), 15/30 (50%), 48%, p=0.0002"
